Activity calls are given as the source filed them. No cut-off for these calls is given here.
Experiments:
DU-145 [1] = assay: Cytotoxicity against human DU145 cells assessed as reduction in cell viability after 48 hrs by MTT assay; format: functional; conditions: DU-145, 48 h
LNCaP [2] = assay: Cytotoxicity against human LNCAP cells assessed as reduction in cell viability after 48 hrs by MTT assay; format: functional
T47D [3] = assay: Cytotoxicity against human T47D cells assessed as reduction in cell viability after 48 hrs by MTT assay; format: functional
MCF7 [4] = assay: Cytotoxicity against human MCF7 cells assessed as reduction in cell viability after 48 hrs by MTT assay; format: functional; conditions: MCF7, 48 h
[5] = Cytotoxicity against human PC3 cells assessed as reduction in cell viability after 48 hrs by MTT assay; format: functional; conditions: PC-3, 48 h
MDA-MB-453 [6] = assay: Cytotoxicity against human MDA-MB-453 cells assessed as reduction in cell viability after 48 hrs by MTT assay; format: functional; conditions: MDA-MB-453, 48 h
MDA-MB-453 [7] = assay: Growth inhibition of human MDA-MB-453 cells; format: functional
MCF7 [8] = assay: Growth inhibition of human MCF7 cells; format: functional
T47D [9] = assay: Growth inhibition of human T47D cells; format: functional
[10] = Systemic bioavailability in rat; format: ADME, organism-based; conditions: in vivo
DU-145 [11] = assay: Growth inhibition of human DU145 cells; format: functional
[12] = Protein binding in plasma (unknown origin); format: ADME, cell-free; conditions: read-out: PPB (converted)
Toxicity in dog = conditions: in vivo
[13] = Growth inhibition of human PC3 cells; format: functional; conditions: PC-3
LNCaP [14] = assay: Selectivity index, ratio of GI50 for human DU145 cells to GI50 for human LNCAP cells; format: functional
MCF7 [15] = assay: Growth inhibition of human MCF7 cells at 0.5 to 20 uM after 4 days by MTT assay; format: functional, cell-based
MDA-MB-453 [16] = assay: Growth inhibition of human MDA-MB-453 cells at 0.5 to 20 uM after 4 days by MTT assay; format: functional, cell-based
LNCaP [17] = assay: Growth inhibition of human LNCAP cells at 0.5 to 20 uM after 4 days by […] assay
T47D [18] = assay: Growth inhibition of human T47D cells at 0.5 to 20 uM after 4 days by MTT assay; format: functional, cell-based
LNCaP [19] = assay: Selectivity index, ratio of GI50 for human PC3 cells to GI50 for human LNCAP cells; format: functional

SMILES	GI50 (DU-145 [1])	GI50 (LNCaP [2])	GI50 (T47D [3])	GI50 (MCF7 [4])	GI50 [5]	GI50 (MDA-MB-453 [6])	GI50 (MDA-MB-453 [7])	GI50 (MCF7 [8])	GI50 (T47D [9])	bioavailability [10]	GI50 (DU-145 [11])	fraction unbound [12]	NOAEL (Toxicity in dog)	GI50 [13]	Selectivity Index (LNCaP [14])	growth inhibition (GI) (MCF7 [15])	growth inhibition (GI) (MDA-MB-453 [16])	growth inhibition (GI) (LNCaP [17])	growth inhibition (GI) (T47D [18])	Selectivity Index (LNCaP [19])
O=[N+]([O-])c1ccc(NC(=S)Nc2ccc3sccc3c2)cc1	> 50 µM	23.5 µM	15.3 µM	> 50 µM	> 50 µM	> 50 µM														
CC1(C)CC(C)(C)c2cc(NC(=S)Nc3ccc([N+](=O)[O-])cc3)ccc2S1 [SHETA-2]	3.47 µM	2.25 µM	3.99 µM	4.13 µM	4.8 µM	3.27 µM	5 µM	4.5 µM	4.8 µM	< 1%	4.9 µM	0.007	> 1500 mg/kg	5 µM						
CC1=C(/C=C/C(C)=C/C=C/C(C)=C/C(=O)O)C(C)(C)CCC1 [TRETINOIN]	11.6 µM	10.3 µM	0.82 µM	12.4 µM	12.6 µM	9.51 µM														
O=[N+]([O-])c1ccc(NC(=S)Nc2cc3ccccc3c3ccccc23)cc1	6.11 µM	7.29 µM	11.6 µM	13.3 µM	19.3 µM	14.5 µM														
Cc1cc2cc(NC(=S)Nc3ccc([N+](=O)[O-])cc3)ccc2[nH]1	> 50 µM	40.5 µM	21.6 µM	> 50 µM	> 50 µM	> 50 µM														
Cc1cc(=O)oc2cc(NC(=S)Nc3ccc([N+](=O)[O-])cc3)ccc12	> 50 µM	> 50 µM	> 50 µM	9.89 µM	> 50 µM	> 50 µM														
O=[N+]([O-])c1ccc(NC(=S)Nc2ccc3c(c2)Cc2cc(Br)ccc2-3)cc1	17.5 µM	11.3 µM	3.96 µM	7.81 µM	16.5 µM	6.2 µM														
Cc1ccc(NC(=S)Nc2ccc([N+](=O)[O-])cc2)cc1C	35.1 µM	10.6 µM	8.14 µM	17 µM	26.8 µM	13.5 µM														
CCn1c2ccccc2c2cc(NC(=S)Nc3ccc([N+](=O)[O-])cc3)ccc21	5.87 µM	5.86 µM	9.44 µM	12.8 µM	19.6 µM	6.88 µM														
O=c1oc2ccc(NC(=S)Nc3ccc([N+](=O)[O-])cc3)cc2c2ccccc12	24.1 µM	12.8 µM	8.68 µM	13.1 µM	22.6 µM	27.6 µM														
O=[N+]([O-])c1ccc(NC(=S)Nc2cc3c4ccccc4ccc3c3ccccc23)cc1	21.8 µM	3.54 µM	2.53 µM	3.16 µM	20 µM	4.77 µM									6	Active	Active	Active	Active	6
CC(NC(=S)Nc1ccc([N+](=O)[O-])cc1)c1cccc2ccccc12 (stereo not drawn)	13.7 µM	6.05 µM	2.94 µM	6.21 µM	13.9 µM	6.27 µM									2					2

— ChEMBL document CHEMBL3397006, “Synthesis and evaluation of the diarylthiourea analogs as novel anti-cancer agents” (Bioorg Med Chem Lett, 2015)
